Assay results published in US10577322B2, “5-methoxytryptophan and its derivatives and uses thereof” (National Health Research Institutes, priority 2015, dated 2020).

Assays:
COX-2 = assay: LPS-induced COX-2 protein expression in RAW264.7 cells (immunoblot); format: cell-based, mouse; details: LPS 8 h
Method: Mouse RAW264.7 macrophages were from the American Type Culture Collection and cultured in DMEM containing 10% FBS. […] The duration of LPS (100 ng/ml) treatment varied depending on the experiment.
(§1) Cellular protein were resolved by 5% to 20% SDS-PAGE and transferred to nitrocellulose membranes and blotted with specific antibodies as previously described (Lee, G. L., et al.).
After pretreating mouse macrophage RAW264.7 cells with different concentrations of 5-MTP for 30 min, cells were stimulated with LPS for 8 h. Cell lysates were immunoblotted with antibodies for COX-2 or β-actin. In addition, RAW264.7 cells were transfected with COX-2 promoter-luciferase plasmid. After 24 h transfection, the cells were incubated with LPS for 8 h. Luciferase activity was measured.

caspase-3 = assay: Cleaved caspase-3 immunohistochemistry in lung tissues; format: in vivo, mice; details: LPS 60 mg/kg, 12 and 16 h
Method: (§2) Prior to immunohistochemical detection of COX-2, iNOS, Ly6g, or cleaved caspase-3 in lung sections, sections were deparaffinized with xylene, progressively rehydrated through graded alcohols. Antigen sites were retrieved by heating the sections on slides in pH 8 EDTA antigen. retrieval (Trilogy; Cell Marque Corporation) in electric pressure cooker for 15 min. […] All antibodies described hereafter were diluted in blocking buffer. Sections were incubated at room temperature for 2 h with primary antibody and then washed in PBST. The sections were incubated with primary antibody amplifier quanta (Thermo) for 10 minutes. After rinsing with PBST, the sections were incubated with HRP Polymer Quanto (Thermo) for 10 minutes and washed three times with PBST. COX-2, iNOS, Ly6g and cleaved caspase-3 were visualized by the addition of DAB Quanto Chromogen: Substrate for 3 minutes. Tissues were also counterstained with hematoxylin.
Paraffin-embedded sections were prepared from lung tissues of mice treated with saline or LPS (60 mg/kg) with or without various concentrations of 5-MTP for 12 or 16 h. Activated caspase-3 level in lung tissues was determined by immunohistochemical staining of cleaved caspase-3. The results are shown in FIG. 9A, in which scale bars represent 200 μm.

ERK½ = assay: LPS-induced ERK½ phosphorylation in RAW264.7 cells (immunoblot); format: cell-based, mouse; details: LPS 4 h
Method: as §1
After pretreating RAW264.7 cells with different concentrations of 5-MTP for 30 min, cells were stimulated with LPS for 4 h. Cell lysates were immunoblotted with antibodies for p38, phospho-p38 (p-p38), ERK½, phospho-ERK½ (p-ERK½) or β-actin. […] Activation of p38 MAPK in macrophages is required for TLR-induced NF-κB activation, which is one of the key factors affecting TLR-induced cytokine production. Thus, we evaluated the effect of 5-MTP on LPS-induced. NF-κB activation.

CLP = assay: Cecal ligation and puncture (CLP) model, survival; format: in vivo, mice
Description: To confirm the protective effect of 5-MTP in endotoxemia, we used cecal ligation and puncture (CLP) model in mice. 5-MTP-afforded protection was also observed in mice challenged with CLP.

p300 HAT = p300 HAT activity in peritoneal macrophages; format: cell-based, mouse; details: LPS, 5-MTP 50 μM
Method: p300 HAT activity in peritoneal macrophages treated with LPS in the presence or absence of 5-MTP (50 μM) for the indicated time was measured with an p300 HAT activity assay kit.

[1] = system: proinflammatory cytokines; assay: LPS-induced proinflammatory cytokines in peritoneal macrophages (ELISA); format: cell-based, mouse; details: LPS 24 h
Method: For peritoneal macrophage isolation, C57BL/6J mice were injected intraperitoneally with 2 ml of 4% thioglycollate. Four days after injection, the peritoneal cavity was washed with 5 ml of ice-cold RPMI1640 medium, and cells from the peritoneal exudates were collected by centrifugation, and suspended in RPMI1640 medium, then seeded on 15-cm dishes and allowed to adhere for 4 h. Floating cells were washed out, and adherent cells were used as peritoneal macrophages in the experiments. The cells were incubated with or without LPS (100 ng/ml) for the indicated time before each experiment, as in the protocol for the RAW264.7 cells.
Cytokine levels in the culture supernatants and serum were determined in microtiter plates (96-well) by a specific sandwich ELISA (Biosource) as previously described (Wu, J. Y. & Kuo, C. C. Pivotal role of ADP-ribosylation factor 6 in Toll-like receptor 9-mediated immune signaling. J Biol Chem 287, 4323-4334 (2012)) (Lee, G. L., et al. TLR 2 induces vascular smooth muscle cell migration through cAMP response element-binding protein-mediated interleukin-6 production. Arterioscler Thromb Vasc Biol 32, 2751-2760 (2012); hereinafter, Lee, G. L., et al.).
Furthermore, peritoneal macrophages were stimulated with LPS with or without 5-MTP. After 24 h, proinflammatory cytokines were measured by ELISA.

NF-κB p65 = assay: Phospho-p65 in peritoneal macrophage lysates (ELISA kit); format: cell-based, mouse; details: peritoneal macrophages, 5-MTP 50 μM
Method: Furthermore, after pretreating RAW264.7 cells with different concentrations of 5-MTP for 30 min, cells were stimulated with. LPS for 4 h. NF-κB p65, phospho-NF-κB p65 (p-p65) (Ser536) or β-actin was determined by immunoblotting with specific antibodies. Also, peritoneal macrophages were treated with LPS with or without 5-MTP (50 μM) for the indicated time. Phospho-p65 in the lysates was analyzed by an ELISA kit. The results are shown in FIG. 10D, in which the error bars denote mean ±SD (n=3). According to FIGS. 10C-10D, 5-MTP decreased LPS-induced phosphorylation of NF-κB p65 not only in RAW264.7 cells (FIG. 10C) but also in peritoneal macrophages (FIG. 10D).

TNF-α = assay: LPS-induced TNF-α production in RAW264.7 cells; format: cell-based, mouse; details: data not shown
neutrophil infiltration = assay: Neutrophil infiltration in lung tissues (Ly6G staining); format: in vivo, mice
Method: as §2
Thirty min after saline or 5-MTP administration, mice were injected intraperitoneally with LPS at 4 h, 12 h, 16 h and 24 h. Paraffin-embedded lung tissue specimens were subjected to immunohistochemical Ly6G staining for determination of neutrophil infiltration in lung tissues. The results are shown in FIG. 8A, in which scale bars represent 100 μm.

COc1ccc2[nH]cc(C[C@H](N)C(=O)O)c2c1 [5-MTP, 5-methoxytryptophan]
LPS-induced COX-2 protein expression (COX-2): blocked | cleaved caspase-3 in lung tissues (caspase-3): reduced by 5-MTP | phosphorylation of ERK½ (ERK½): but not that of ERK½ | duration of improved survival (CLP): maintained up to day 6 | survival at day 2 (CLP; 5-MTP 30 mins after surgery): 44.4% | p300 HAT activation (p300 HAT): significantly blocked p300 HAT activation up to 24 h | IL-1β production [1]: inhibited | IL-6 production [1]: inhibited | TNF-α production [1]: inhibited | LPS-induced phosphorylation of NF-κB p65 (NF-κB p65): decreased | TNF-α production (TNF-α): inhibited | neutrophil infiltration in lung tissues (neutrophil infiltration; 5-MTP at 100 mg/kg): reduced the infiltration almost to the basal level | neutrophil infiltration in lung tissues (neutrophil infiltration; LPS, 4 h, 12 h, 16 h and 24 h): dose-dependently reduced
